Literature values, collected in patent publication US20030181475A1, “Method of administering buprenorphine to treat depression” (EURO-CELTIQUE S.A., priority 2002, published 2003).

Tested on: depressed patients
Conditions: literature clinical reports

Compound | anti-depressive / therapeutic effect in depressed patients
COc1ccc2c3c1O[C@H]1[C@@H](O)C=C[C@H]4[C@@H](C2)N(C)CC[C@@]341 [codeine] | no anti-depressive effect
CCC(=O)C(CC(C)N(C)C)(c1ccccc1)c1ccccc1 (centres unmarked) [methadone] | conflicting
CN1CC[C@]23c4c5ccc(O)c4O[C@H]2[C@@H](O)C=C[C@H]3[C@H]1C5 [morphine] | conflicting
COc1cccc(C2(O)CCCCC2CN(C)C)c1 (centres unmarked) [tramadol] | helped a patient with refractory major depression
β-endorphin (YGGFMTSEKSQTPLVTLFKNAIIKNAYKKGE; Beta-endorphin; UniProt P01189 237-267, looked up) [an endogenous opioid] | no or little observable therapeutic effect
